Reference: patent US11541132B2, “Radiolabeled compounds” (Hoffmann-La Roche Inc., priority 2017, dated 2023)

Experiments:
[1] = target: T1, native aSyn aggregates in A30P transgenic mouse brain sections (Homo sapiens, UniProt P37840, A30P); experiment: aSyn in vitro displacement assay ([3H]Example-3 autoradiography); assay type: binding, mutant human aSyn gene); conditions: 1 μM compound; 3 nM [3H]Example-3; A30P transgenic mouse brain sections; read-out: PCT_INHIB A30P @ 1 μM (% displacement of [3H]Example-3)
T1 construct: from tissue; host or cells: brain sections (midbrain and pons as ROI) of A30P transgenic mice, line B6.D2-Tg(Thy1-SNCA*30P)31Pjk

[2] = target: T2, native Aβ aggregates in human AD brain tissue sections (Homo sapiens, UniProt P05067); experiment: Aβ in vitro displacement assay (selectivity counterscreen, [3H]Example 3 autoradiography); assay type: binding; conditions: 1 μM compound; 3 nM [3H]Example 3; human AD brain sections; read-out: sel. counterscreen PCT_INHIB AD @ 1 μM (% displacement of [3H]Example 3)
T2 construct: native Aβ aggregates in human AD brain tissue samples; from tissue; host or cells: human AD brain tissue sections
T2 sequence (P05067 672-713 limits assumed): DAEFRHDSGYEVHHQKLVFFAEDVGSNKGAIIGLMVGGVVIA

| inhibition at 1 µM [1] [%] | inhibition at 1 µM [2] [%] | SMILES |
| --- | --- | --- |
| 85 | 97 | COc1ccc(C(=O)Nc2cnc(N3CCN(c4ccccn4)CC3)nc2)cc1 [Example 59, 4-Methoxy-N-(2-(4-(pyridin-2-yl)piperazin-1-yl)pyrimidin-5-yl)benzamide] |
| 89 | 97 | CN(C)c1ccc(C(=O)Nc2cnc(N3CCN(c4ccccn4)CC3)nc2)cc1 [Example 62, 4-(Dimethylamino)-N-(2-(4-(pyridin-2-yl)piperazin-1-yl)pyrimidin-5-yl)benzamide] |
| 95 | 94 | O=C(Nc1cnc(N2CCN(c3ccccn3)CC2)nc1)c1ccc(N2CCOCC2)cc1 [Example 63, 4-Morpholino-N-(2-(4-(pyridin-2-yl)piperazin-1-yl)pyrimidin-5-yl)benzamide] |
| 88 | 91 | CN1CCN(c2ccc(C(=O)Nc3cnc(N4CCN(c5ccccn5)CC4)nc3)cc2)CC1 [Example 73, 4-(4-Methylpiperazin-1-yl)-N-(2-(4-(pyridin-2-yl)piperazin-1-yl)pyrimidin-5-yl)benzamide] |
| 93 | 95 | Cc1ccc(C(=O)Nc2cnc(N3CCN(c4ccccn4)CC3)nc2)cc1 [Example 74, 4-Methyl-N-(2-(4-(pyridin-2-yl)piperazin-1-yl)pyrimidin-5-yl)benzamide] |
| 94 | 91 | COc1ccc(C(=O)Nc2ccc(N3CCN(c4ccccn4)CC3)cn2)nc1 [Example 76, 5-Methoxy-N-(5-(4-(pyridin-2-yl)piperazin-1-yl)pyridin-2-yl)picolinamide] |
| 90 | 94 | COc1ccc(C(=O)Nc2ccc(N3CCN(c4ccccn4)CC3)cn2)c(C)c1 [Example 80, 4-Methoxy-2-methyl-N-[5-(4-pyridin-2-ylpiperazin-1-yl)pyridin-2-yl]benzamide] |
| 90 | 92 | CN1CCN(c2ccc(C(=O)Nc3ccc(N4CCN(c5ccccn5)CC4)cn3)cc2)CC1 [Example 81, 4-(4-Methylpiperazin-1-yl)-N-[5-(4-pyridin-2-ylpiperazin-1-yl)pyridin-2-yl]benzamide] |
| 88 | 100 | COc1ccc(C(=O)Nc2cnc(N3CCN(c4ccccn4)CC3)cn2)c(F)c1 [Example 84, 2-Fluoro-4-methoxy-N-(5-(4-(pyridin-2-yl)piperazin-1-yl)pyrazin-2-yl)benzamide] |
| 98 | 107 | COc1ccc(C(=O)Nc2cnc(N3CCN(c4ccccn4)CC3)cn2)cc1 [Example 85, 4-Methoxy-N-(5-(4-(pyridin-2-yl)piperazin-1-yl)pyrazin-2-yl)benzamide] |
| 95 | 100 | CN(C)c1ccc(C(=O)Nc2cnc(N3CCN(c4ccccn4)CC3)cn2)cc1 [Example 86, 4-(Dimethylamino)-N-(5-(4-(pyridin-2-yl)piperazin-1-yl)pyrazin-2-yl)benzamide] |
| 88 | 98 | CN1CCN(c2ccc(C(=O)Nc3cnc(N4CCN(c5ccccn5)CC4)cn3)cc2)CC1 [Example 87, 4-(4-Methylpiperazin-1-yl)-N-(5-(4-(pyridin-2-yl)piperazin-1-yl)pyrazin-2-yl)benzamide] |
| 87 | 71 | O=C(Nc1cnc(N2CCN(c3ccccn3)CC2)cn1)c1ccc(N2CCOCC2)cc1 [Example 88, 4-Morpholino-N-(5-(4-(pyridin-2-yl)piperazin-1-yl)pyrazin-2-yl)benzamide] |
| 85 | 88 | Cc1ccc(C(=O)Nc2cnc(N3CCN(c4ccccn4)CC3)cn2)cc1 [Example 89, 4-Methyl-N-(5-(4-(pyridin-2-yl)piperazin-1-yl)pyrazin-2-yl)benzamide] |
| 85 | 74 | Cc1ccc(C(=O)Nc2cnc(N3CCN(c4ccccn4)CC3)cn2)nc1 [Example 90, 5-Methyl-N-(5-(4-(pyridin-2-yl)piperazin-1-yl)pyrazin-2-yl)picolinamide] |

The next lines start with the compound.

| SMILES | inhibition at 1 µM [1] [%] | inhibition at 1 µM [2] [%] |
| --- | --- | --- |
| COc1ccc(C(=O)Nc2ccc(N3CCN(c4ncncn4)CC3)cc2)cc1 [Example 55, 4-Methoxy-N-{4-[4-(1,3,5-triazin-2-yl)piperazin-1-yl]phenyl}benzamide] | 81 | 95 |
| COc1ccc(C(=O)Nc2ccc(N3CCN(c4ccncn4)CC3)cc2)cc1 [Example 56, 4-Methoxy-N-{4-[4-(pyrimidin-4-yl)piperazin-1-yl]phenyl}benzamide] | 88 | 98 |
| COc1ccc(C(=O)Nc2ccc(N3CCN(c4ccc(C#N)cc4)CC3)cc2)cc1 [Example 57, N-[4-[4-(4-Cyanophenyl)piperazin-1-yl]phenyl]-4-methoxy-benzamide] | 102 | 101 |
| COc1ccc(C(=O)Nc2ccc(N3CCN(c4ccc(OC)nc4)CC3)cc2)cc1 [Example 58, 4-Methoxy-N-[4-[4-(6-methoxypyridin-3-yl)piperazin-1-yl]phenyl]benzamide] | 93 | 92 |
| COc1ccc(C(=O)Nc2cnc(N3CCN(c4ccccn4)CC3)nc2)c(F)c1 [Example 60, 2-Fluoro-4-methoxy-N-(2-(4-(pyridin-2-yl)piperazin-1-yl)pyrimidin-5-yl)benzamide] | 85 | 96 |
| O=C(Nc1cnc(N2CCN(c3ccccn3)CC2)nc1)c1ccccc1F [Example 61, 2-Fluoro-N-(2-(4-(pyridin-2-yl)piperazin-1-yl)pyrimidin-5-yl)benzamide] | 86 | 93 |
| Cc1cccc(C(=O)Nc2cnc(N3CCN(c4ccccn4)CC3)nc2)c1 [Example 64, 3-Methyl-N-(2-(4-(pyridin-2-yl)piperazin-1-yl)pyrimidin-5-yl)benzamide] | 88 | 92 |
| COc1ccc(C(=O)Nc2ccc(N3CCN(c4cc(C#N)ccn4)CC3)cc2)cc1 [Example 65, N-[4-[4-(4-Cyano-2-pyridyl)piperazin-1-yl]phenyl]-4-methoxy-benzamide] | 100 | 99 |
| COc1ccc(C(=O)Nc2ccc(N3CCN(c4cccs4)CC3)cc2)cc1 [Example 66, 4-Methoxy-N-{4-[4-(thiophen-2-yl)piperazin-1-yl]phenyl}benzamide] | 104 | 103 |
| COc1ccc(C(=O)Nc2ccc(N3CCN(c4cccnc4OC)CC3)cc2)cc1 [Example 67, 4-Methoxy-N-{4-[4-(2-methoxypyridin-3-yl)piperazin-1-yl]phenyl}benzamide] | 94 | 88 |
| COc1ccc(C(=O)Nc2ccc(N3CCN(c4cccc(OC)n4)CC3)cc2)cc1 [Example 68, 4-Methoxy-N-{4-[4-(6-methoxypyridin-2-yl)piperazin-1-yl]phenyl}benzamide] | 96 | 90 |
| COc1ccc(C(=O)Nc2ccc(N3CCN(c4ccccc4OC)CC3)cc2)cc1 [Example 69, 4-Methoxy-N-{4-[4-(2-methoxyphenyl)piperazin-1-yl]phenyl}benzamide] | 89 | 86 |
| COc1ccc(C(=O)Nc2ccc(N3CCN(c4ccccc4C#N)CC3)cc2)cc1 [Example 70, N-{4-[4-(2-Cyanophenyl)piperazin-1-yl]phenyl}-4-methoxybenzamide] | 84 | 64 |
| COc1ccc(C(=O)Nc2ccc(N3CCN(c4ccccc4F)CC3)cc2)cc1 [Example 71, N-{4-[4-(2-Fluorophenyl)piperazin-1-yl]phenyl}-4-methoxybenzamide] | 101 | 100 |
| COc1ccc(C(=O)Nc2cnc(N3CCN(c4ccccn4)CC3)nc2)c(C)c1 [Example 72, 4-Methoxy-2-methyl-N-(2-(4-(pyridin-2-yl)piperazin-1-yl)pyrimidin-5-yl)benzamide] | 80 | 86 |
| Cc1ccc(C(=O)Nc2cnc(N3CCN(c4ccccn4)CC3)nc2)nc1 [Example 75, 5-Methyl-N-(2-(4-(pyridin-2-yl)piperazin-1-yl)pyrimidin-5-yl)picolinamide] | 95 | 95 |
| COc1ccc(C(=O)Nc2ccc(N3CCN(c4cccnc4)CC3)cc2)nc1 [Example 77, 5-Methoxy-N-(4-(4-(pyridin-3-yl)piperazin-1-yl)phenyl)picolinamide] | 98 | 96 |
| COc1ccc(C(=O)Nc2ccc(N3CCN(c4ccccn4)CC3)cc2)nc1 [Example 78, 5-Methoxy-N-(4-(4-(pyridin-2-yl)piperazin-1-yl)phenyl)picolinamide] | 98 | 94 |
| COc1ccc(C(=O)Nc2cnc(N3CCN(c4ccccn4)CC3)nc2)nc1 [Example 79, 5-Methoxy-N-(2-(4-(pyridin-2-yl)piperazin-1-yl)pyrimidin-5-yl)picolinamide] | 95 | 93 |
| COc1ccc(C(=O)Nc2ccc(N3CCN(c4cc(OC)ccn4)CC3)cc2)cc1 [Example 82, 4-Methoxy-N-[4-[4-(4-methoxy-2-pyridyl)piperazin-1-yl]phenyl]benzamide] | 91 | 106 |
| COc1ccc(C(=O)Nc2ccc(N3CCN(c4ccncc4C)CC3)cc2)cc1 [Example 83, Acetic acid; 4-Methoxy-N-[4-[4-(3-methyl-4-pyridyl)piperazin-1-yl]phenyl]benzamide] | 86 | 95 |
